In patent publication US6469028B1, “Synthesis and use of retinoid compounds having negative hormone and/or anatgonist activities” (Allergan, Inc., priority 1995, dated 2002):

Key:
[1] = test system: MRP-8 expression in primary foreskin keratinocytes; experiment: Example 20: MRP-8 expression in keratinocytes (RT-PCR); type: cell-based, human; details: AGN 191183 10^−7 M or AGN 193109 10^−6 M, 3 days
Text: Primary foreskin keratinocytes were isolated according to the procedure described by Nagpal et al. in J. Biol. Chem. 270:923 (1995) and cultured in keratinocyte growth medium (KGM) that was purchased from Clonetics. […] The mRNA was reverse transcribed into cDNA which then served as the template in a PCR amplification protocol using primers specific for either the glyceraldehyde phosphate dehydrogenase (GAPDH) housekeeping gene or MRP-8. The GAPDH primers had the sequences [NT] ID NO:6) and [NT] ID NO:7). The MRP-8 primers had the sequences [NT] ID NO:8) and [NT] ID NO:9). An aliquot from the MRP-8 amplification reaction (10 μl) was removed after every cycle of PCR amplification starting from 12 cycles and ending at 21 cycles. Similarly, an aliquot of the GAPDH amplification reaction was removed after every PCR cycle starting at 15 cycles and ending at 24 cycles. […] The staining intensity of the amplification products served as a quantitative measure of the amount of starting MRNA specific for the given primer set.

[2] = test system: stromelysin-1 expression in primary foreskin keratinocytes; experiment: Example 21: stromelysin-1 expression in keratinocytes (RT-PCR); type: cell-based, human; details: AGN 191183 10^−7 M or AGN 193109 10^−6 M, 24 hours
Method: Total RNA prepared from mock-treated and retinoid-treated keratinocytes was reverse transcribed and the resulting cDNA was PCR amplified using β-actin or stromelysin-1 oligo primers exactly as described by Nagpal et al. in J. Biol. Chem. 270:923 (1995)), the disclosure of which has been incorporated by reference. A sample (10 μl) from the PCR amplification reaction was removed after every three cycles starting from 18 cycles of PCR amplification. The sample was electrophoresed on a 2% agarose gel and detected after ethidium bromide staining.

[3] = test system: tissue transglutaminase (TGase) gene in HL-60 cells; experiment: TGase activity in HL-60 cells; type: cell-based; details: TGase induced by RXR agonists
Text: This same mechanism can account for the observation that AGN 193109 can repress the activity of the tissue transglutaminase (TGase) gene in HL-60 cells. A retinoid response element consisting of three canonical retinoid half sites spaced by 5 and 7 base pairs has been identified in the transcription control region of this gene. While TGase can be induced by RXR-selective agonists, it is not responsive to RAR-selective agonists. The TGase retinoid response element is bound by an RAR/RXR heterodimer (Davies et al. in Press). […] This AGN 193109 mediated repression can be accounted for by the ability of this negative hormone to sequester NCPs to the RAR component of the heterodimer, thereby repressing the activity of the associated RXR.

[4] = test system: cultured cervical carcinoma cells; experiment: Example 23: cultured cervical carcinoma cells from a patient biopsy; type: cell-based; details: 10^−10 to 10^−6 M
Text: A patient presenting with an advanced cervical carcinoma is first identified. A cervical biopsy is obtained according to methods that will be familiar to one having ordinary skill in the art. Cells from the explanted tumor are propagated in tissue culture according to standard techniques to provide cell numbers sufficient to allow division into three sample groups. Culture conditions described by Agarwal et al. in Cancer Res. 54:2108 (1994) are employed for this purpose. The first group is reserved as a control and receives vehicle alone (ethanol). The second group is treated with the RAR agonist retinoic acid at a concentration of from 10^−10 to 10^−6 M. The third group is treated with AGN 193109 at doses ranging from 10^−10 to 10^−6 M. Cells are fed with fresh growth medium daily and are provided with the retinoids described above as appropriate for each sample group. Cells are counted after three days using an electric cell counter.

hairless mice = experiment: Example 2: skin irritation and weight loss by oral agonist, topical antagonist; type: in vivo
Method: Mice were simultaneously treated topically on the dorsal skin with vehicle (97.6% acetone/2.4% dimethylsulfoxide) or solutions of AGN 193109 in vehicle (6 ml/kg). Specific doses for the different treatment groups are give in Table 8. Treatments were administered daily for 4 consecutive days. Mice were weighed and graded for topical irritation daily as described in Example 1 up to and including 1 day after the last treatment. Percent body weight change is calculated by subtracting […], dividing by initial body weight, and multiplying by 100%. Topical irritation scores are calculated as described in Example 1.

CaSki cell tumors = experiment: Example 22: CaSki cell tumor growth in nude mice; type: in vivo; details: 20 μMol/kg AGN 193109 in corn oil daily, intragastric
Method: 1×10^6 CaSki cells are injected into each of a panel of nude mice. Tumor formation is assessed using techniques that will be familiar to one having ordinary skill in the art. After injection, mice are randomly divided into control and test groups. The control group receives a placebo. The test group is administered with AGN 193109. Animals administered with the placebo receive intragastric intubation of corn oil. The test animals receive 20 μMol/kg AGN 193109 in corn oil daily for the period of the treatment. Tumor volume is measured in […] using graduated calipers. Tumor volume is plotted as function of time.

RAR-γ-VP-16 = RAR-γ-VP-16 activity at the ΔMTV-TREp-Luc reporter; type: cell-based
Text: We have also obtained results which support conclusions identical to those presented under Example 11 by employing RAR-γ-VP-16 and expression constructs and the ΔMTV-TREp-Luc reporter plasmid instead of the RAR-γ-VP-16 and ER-RXR-α expression constructs in combination with the ERE-tk-Luc reporter plasmid. […] Therefore, AGN 193109 repressed RAR-γ-VP-16 activity when this chimeric receptor was directly bound to a retinoic acid receptor response element instead of indirectly bound to an estrogen response element in the promoter region of the reporter plasmid. […] Instead, the critical feature embodied by an experimental system useful for identifying retinoid negative hormones involves detecting the ability of a compound to repress the activity of an RAR engineered to contain a constitutive transcription activation domain.

[5] = group E: topical AGN 193109 0.47 mg/kg/d alone

**Q.** How did the “MRP-8 mRNA expression” value [1] turn out when `Cc1ccc(C2=CCC(C)(C)c3ccc(C#Cc4ccc(C(=O)O)cc4)cc32)cc1` [Compound 60, 4-[(5,6-dihydro-5,5-dimethyl-8-(4-methylphenyl)-2-naphthalenyl)ethynyl]benzoic acid] was run?
**A.** repressed MRP8 expression

**Q.** What about the “stromelysin-1 mRNA expression” value [2] of the same molecule?
**A.** down-regulation of stromelysin-1 mRNA levels

**Q.** And the TGase activity [3]?
**A.** able to repress TGase activity induced by RXR agonists

**Q.** And the “cell number after three days” value [4]?
**A.** dose-dependent decrease in cell number

**Q.** And the “Topical Irritation Score” value (hairless mice; group C: topical AGN 193109 […] + oral AGN 191183 0.26 mg/kg/d)?
**A.** 1 ± 1

**Q.** What about the “% Weight Gain or (Loss)” value (hairless mice; group C: topical AGN 193109 […] + oral AGN 191183 0.26 mg/kg/d, parentheses = loss) of the same molecule?
**A.** (9 ± 5) %

**Q.** And the “Topical Irritation Score” value (hairless mice; group D: topical AGN 193109 0.47 mg/kg/d + oral AGN 191183 0.26 mg/kg/d)?
**A.** 0 ± 1

**Q.** And the “% Weight Gain or (Loss)” value (hairless mice; group D: topical AGN 193109 0.47 mg/kg/d + oral AGN 191183 0.26 mg/kg/d, parentheses = loss)?
**A.** (3 ± 5) %

**Q.** What about the “% Weight Gain or (Loss)” value (hairless mice; [5]) of the same molecule?
**A.** 3 ± 3%

**Q.** And the “Topical Irritation Score” value (hairless mice; [5])?
**A.** 0 ± 0

**Q.** What about the tumor growth rate (CaSki cell tumors) of the same molecule?
**A.** tumors which are significantly reduced in their growth rate

**Q.** What about the “RAR-γ-VP-16 activity at the ΔMTV-TREp-Luc reporter” value (RAR-γ-VP-16) of the same molecule?
**A.** inhibited
